Measured values as given in patent US20250353891A1 (MEDIMMUNE LIMITED, priority 2022, published 2025).
Starred links: 1 amine or outer side, 2 acyl side, 3 side chain; linkers in the order of their positions; H or OH if unused. Non-standard residues stand in square brackets, D forms with d. Residues, ends and D or L forms follow the SMILES beside them. Groups on a side chain read outwards from the residue. *: point of attachment. Trp(5-Br) = N[C@@H](Cc1c[nH]c2ccc(Br)cc12)C(=O)O; Trp(1-Me) = Cn1cc(C[C@H](N)C(=O)O)c2ccccc21; Bip = N[C@@H](Cc1ccc(-c2ccccc2)cc1)C(=O)O; C18 diacid = O=C(O)CCCCCCCCCCCCCCCCC(=O)*; γGlu = O=C(O)[C@H](CCC(=O)[*:2])N[*:1]; αMeF = C[C@](N)(Cc1ccccc1)C(=O)O; AEEA = NCCOCCOCC(=O)O; Aib = CC(C)(N)C(=O)O

How the values were obtained:
[1] = molecular target: human glucagon receptor (hGCGR) (Homo sapiens, UniProt P47871); assay: cAMP production (HTRF) in CHO cells expressing hGCGR; assay type: cell-based; parameters: expressed in transfected cells; conditions: Table 6, peptides modified at position 17; cAMP in CHO hGCGR cells; geometric mean; read-out: hGluc-R EC50
In short: (§1)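 Cells were resuspended in assay buffer at batch-optimized density, typically 1×10^5 cells/mL for hGLP-1R and 2×10^5 cells/mL for hGCGR. After 30 min incubation at room temperature with compound, cAMP was measured by two-step HTRF. EC50 values came from 4-parameter logistic fits of % Delta F.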

[2] = molecular target: human GLP-1 receptor (hGLP-1R) (Homo sapiens, UniProt P43220); assay: cAMP production (HTRF) in CHO cells expressing hGLP-1R; assay type: cell-based; parameters: expressed in transfected cells; conditions: for EC50: Table 6, peptides modified at position 17, cAMP in CHO hGLP-1R cells, geometric mean, read-out: hGLP-1R EC50; for % Relative Potency Ratio: Table 6, % GLP-1R activity relative to GLP-1 / % GlucR activity relative to glucagon
In short: as §1

Sequence of human GLP-1 receptor (hGLP-1R) (P43220 24-463): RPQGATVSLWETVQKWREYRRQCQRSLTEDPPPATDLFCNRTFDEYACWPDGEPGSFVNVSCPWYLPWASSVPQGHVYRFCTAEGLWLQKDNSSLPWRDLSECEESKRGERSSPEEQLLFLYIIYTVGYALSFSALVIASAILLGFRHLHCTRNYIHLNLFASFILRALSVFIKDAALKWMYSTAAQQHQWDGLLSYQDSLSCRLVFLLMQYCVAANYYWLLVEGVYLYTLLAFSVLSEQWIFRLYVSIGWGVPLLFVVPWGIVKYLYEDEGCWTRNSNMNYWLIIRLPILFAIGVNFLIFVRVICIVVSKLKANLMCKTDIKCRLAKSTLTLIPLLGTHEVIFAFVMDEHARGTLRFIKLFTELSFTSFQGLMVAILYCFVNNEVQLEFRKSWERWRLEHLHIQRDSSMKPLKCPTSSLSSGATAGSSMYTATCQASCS
Sequence of human glucagon receptor (hGCGR) (P47871 26-477): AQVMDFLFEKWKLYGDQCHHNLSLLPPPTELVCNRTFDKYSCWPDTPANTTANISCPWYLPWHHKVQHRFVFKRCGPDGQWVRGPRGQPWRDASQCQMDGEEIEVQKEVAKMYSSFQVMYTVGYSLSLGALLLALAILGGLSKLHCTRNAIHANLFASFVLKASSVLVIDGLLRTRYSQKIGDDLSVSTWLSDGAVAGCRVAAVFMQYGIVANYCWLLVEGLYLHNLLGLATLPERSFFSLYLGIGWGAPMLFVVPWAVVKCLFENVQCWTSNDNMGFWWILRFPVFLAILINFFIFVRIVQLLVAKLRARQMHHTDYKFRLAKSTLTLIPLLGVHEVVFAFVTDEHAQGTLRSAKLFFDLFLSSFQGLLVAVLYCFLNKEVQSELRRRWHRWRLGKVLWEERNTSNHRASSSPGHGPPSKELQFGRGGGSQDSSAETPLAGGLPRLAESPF

Row | EC50 [1] [nM] | EC50 [2] [nM] | % Relative Potency Ratio [2] | SMILES
1 | 0.16 | 0.0244 | 13.0 | CC(C)C[C@H](NC(=O)[C@H](Cc1c[nH]c2ccccc12)NC(=O)[C@H](CCCNC(=N)N)NC(=O)[C@@H](NC(=O)[C@H](Cc1ccccc1)NC(=O)[C@H](CC(=O)O)NC(=O)[C@H](CCC(N)=O)NC(=O)[C@H](C)NC(=O)[C@H](CCCNC(=N)N)NC(=O)[C@H](CCCCNC(=O)COCCOCCNC(=O)COCCOCCNC(=O)CC[C@H](NC(=O)CC[C@H](NC(=O)CCCCCCCCCCCCCCCCC(=O)O)C(=O)O)C(=O)O)NC(=O)[C@H](CO)NC(=O)[C@H](CC(=O)O)NC(=O)[C@H](CC(C)C)NC(=O)[C@](C)(Cc1ccccc1)NC(=O)[C@H](CCCCN)NC(=O)[C@H](CO)NC(=O)[C@@H](NC(=O)[C@H](CC(=O)O)NC(=O)[C@H](CO)NC(=O)[C@@H](NC(=O)[C@H](Cc1ccccc1)NC(=O)[C@@H](NC(=O)CNC(=O)[C@H](CCC(N)=O)NC(=O)C(C)(C)NC(=O)[C@@H](N)Cc1c[nH]cn1)[C@@H](C)O)[C@@H](C)O)C(C)C)C(C)C)C(=O)N[C@@H](CCC(=O)O)C(=O)N[C@@H](C)C(=O)NC(C)(C)C(=O)NCC(N)=O [Peptide 430] (H-H[Aib]QGTFTSDVSK[αMeF]LDSK([AEEA-AEEA-γGlu-γGlu-C18 diacid])RAQDFVRWLEA[Aib]G-NH2; N-terminus assumed)
2 | 0.194 | 0.0446 | 8.6 | CC(C)C[C@H](NC(=O)[C@H](Cc1c[nH]c2ccccc12)NC(=O)[C@H](C)NC(=O)[C@@H](NC(=O)[C@H](Cc1ccccc1)NC(=O)[C@H](CC(=O)O)NC(=O)[C@H](CCC(N)=O)NC(=O)[C@H](C)NC(=O)[C@H](CCCNC(=N)N)NC(=O)[C@H](CCCCNC(=O)COCCOCCNC(=O)COCCOCCNC(=O)CC[C@H](NC(=O)CC[C@H](NC(=O)CCCCCCCCCCCCCCCCC(=O)O)C(=O)O)C(=O)O)NC(=O)[C@@H](NC(=O)[C@H](CC(=O)O)NC(=O)[C@H](CC(C)C)NC(=O)[C@](C)(Cc1ccccc1)NC(=O)[C@H](CCCCN)NC(=O)[C@H](CO)NC(=O)[C@@H](NC(=O)[C@H](CC(=O)O)NC(=O)[C@H](CO)NC(=O)[C@@H](NC(=O)[C@H](Cc1ccccc1)NC(=O)[C@@H](NC(=O)CNC(=O)[C@H](CCC(N)=O)NC(=O)C(C)(C)NC(=O)[C@@H](N)Cc1c[nH]cn1)[C@@H](C)O)[C@@H](C)O)C(C)C)[C@@H](C)O)C(C)C)C(=O)N[C@@H](CCC(=O)O)C(=O)N[C@@H](C)C(=O)NC(C)(C)C(=O)NCC(N)=O [Peptide 431] (H-H[Aib]QGTFTSDVSK[αMeF]LDTK([AEEA-AEEA-γGlu-γGlu-C18 diacid])RAQDFVAWLEA[Aib]G-NH2; N-terminus assumed)
3 | 1.16 | 1.38 | 1.7 | CC(C)C[C@H](NC(=O)[C@H](Cc1ccc(-c2ccccc2)cc1)NC(=O)[C@H](CCCNC(=N)N)NC(=O)[C@@H](NC(=O)[C@H](Cc1ccccc1)NC(=O)[C@H](CC(=O)O)NC(=O)[C@H](CCC(N)=O)NC(=O)[C@H](C)NC(=O)[C@H](CCCNC(=N)N)NC(=O)[C@H](CCCCNC(=O)COCCOCCNC(=O)COCCOCCNC(=O)CC[C@H](NC(=O)CCCCCCCCCCCCCCCCC(=O)O)C(=O)O)NC(=O)[C@H](CO)NC(=O)[C@H](CC(=O)O)NC(=O)[C@H](CC(C)C)NC(=O)[C@](C)(Cc1ccccc1)NC(=O)[C@H](CCCCN)NC(=O)[C@H](CO)NC(=O)[C@@H](NC(=O)[C@H](CC(=O)O)NC(=O)[C@H](CO)NC(=O)[C@@H](NC(=O)[C@H](Cc1ccccc1)NC(=O)[C@@H](NC(=O)CNC(=O)[C@H](CCC(N)=O)NC(=O)C(C)(C)NC(=O)[C@@H](N)Cc1c[nH]cn1)[C@@H](C)O)[C@@H](C)O)C(C)C)C(C)C)C(=O)N[C@@H](CC(C)C)C(=O)NC(C)(C)C(=O)N[C@@H](CCC(=O)O)C(=O)O [Peptide 432] (H-H[Aib]QGTFTSDVSK[αMeF]LDSK([AEEA-AEEA-γGlu-C18 diacid])RAQDFVR[Bip]LL[Aib]E-OH)
4 | 10.5 | 4.46 | 4.6 | CC(C)C[C@H](NC(=O)[C@H](Cc1cn(C)c2ccccc12)NC(=O)[C@H](CCCNC(=N)N)NC(=O)[C@@H](NC(=O)[C@H](Cc1ccccc1)NC(=O)[C@H](CC(=O)O)NC(=O)[C@H](CCC(N)=O)NC(=O)[C@H](C)NC(=O)[C@H](CCCNC(=N)N)NC(=O)[C@H](CCCCNC(=O)COCCOCCNC(=O)COCCOCCNC(=O)CC[C@H](NC(=O)CCCCCCCCCCCCCCCCC(=O)O)C(=O)O)NC(=O)[C@H](CO)NC(=O)[C@H](CC(=O)O)NC(=O)[C@H](CC(C)C)NC(=O)[C@](C)(Cc1ccccc1)NC(=O)[C@H](CCCCN)NC(=O)[C@H](CO)NC(=O)[C@@H](NC(=O)[C@H](CC(=O)O)NC(=O)[C@H](CO)NC(=O)[C@@H](NC(=O)[C@H](Cc1ccccc1)NC(=O)[C@@H](NC(=O)CNC(=O)[C@H](CCC(N)=O)NC(=O)C(C)(C)NC(=O)[C@@H](N)Cc1c[nH]cn1)[C@@H](C)O)[C@@H](C)O)C(C)C)C(C)C)C(=O)N[C@@H](CC(C)C)C(=O)NC(C)(C)C(=O)N[C@@H](CCC(=O)O)C(=O)O [Peptide 433] (H-H[Aib]QGTFTSDVSK[αMeF]LDSK([AEEA-AEEA-γGlu-C18 diacid])RAQDFVR[Trp(1-Me)]LL[Aib]E-OH; N-terminus assumed)
5 | 0.294 | 0.153 | 3.8 | CC(C)C[C@H](NC(=O)[C@H](Cc1c[nH]c2ccc(Br)cc12)NC(=O)[C@H](CCCNC(=N)N)NC(=O)[C@@H](NC(=O)[C@H](Cc1ccccc1)NC(=O)[C@H](CC(=O)O)NC(=O)[C@H](CCC(N)=O)NC(=O)[C@H](C)NC(=O)[C@H](CCCNC(=N)N)NC(=O)[C@H](CCCCNC(=O)COCCOCCNC(=O)COCCOCCNC(=O)CC[C@H](NC(=O)CCCCCCCCCCCCCCCCC(=O)O)C(=O)O)NC(=O)[C@H](CO)NC(=O)[C@H](CC(=O)O)NC(=O)[C@H](CC(C)C)NC(=O)[C@](C)(Cc1ccccc1)NC(=O)[C@H](CCCCN)NC(=O)[C@H](CO)NC(=O)[C@@H](NC(=O)[C@H](CC(=O)O)NC(=O)[C@H](CO)NC(=O)[C@@H](NC(=O)[C@H](Cc1ccccc1)NC(=O)[C@@H](NC(=O)CNC(=O)[C@H](CCC(N)=O)NC(=O)C(C)(C)NC(=O)[C@@H](N)Cc1c[nH]cn1)[C@@H](C)O)[C@@H](C)O)C(C)C)C(C)C)C(=O)N[C@@H](CC(C)C)C(=O)NC(C)(C)C(=O)N[C@@H](CCC(=O)O)C(=O)O [Peptide 434] (H-H[Aib]QGTFTSDVSK[αMeF]LDSK([AEEA-AEEA-γGlu-C18 diacid])RAQDFVR[Trp(5-Br)]LL[Aib]E-OH; N-terminus assumed)
6 | 0.24 | 0.0227 | 21.0 | CC(C)C[C@H](NC(=O)[C@H](CC(C)C)NC(=O)C(C)(C)NC(=O)[C@H](CCC(N)=O)NC(=O)[C@@H](NC(=O)[C@H](Cc1ccccc1)NC(=O)[C@H](CC(=O)O)NC(=O)[C@H](CCCNC(=N)N)NC(=O)[C@H](C)NC(=O)[C@H](CCCNC(=N)N)NC(=O)[C@H](CCCCNC(=O)COCCOCCNC(=O)COCCOCCNC(=O)CC[C@H](NC(=O)CCCCCCCCCCCCCCCCC(=O)O)C(=O)O)NC(=O)[C@@H](NC(=O)[C@H](CC(=O)O)NC(=O)[C@H](CC(C)C)NC(=O)[C@](C)(Cc1ccccc1)NC(=O)[C@H](CCCCN)NC(=O)[C@H](CO)NC(=O)[C@@H](NC(=O)[C@H](CC(=O)O)NC(=O)[C@H](CO)NC(=O)[C@@H](NC(=O)[C@H](Cc1ccccc1)NC(=O)[C@@H](NC(=O)CNC(=O)[C@H](CCC(N)=O)NC(=O)C(C)(C)NC(=O)[C@@H](N)Cc1c[nH]cn1)[C@@H](C)O)[C@@H](C)O)C(C)C)[C@@H](C)O)C(C)C)C(=O)N[C@@H](CCC(=O)O)C(=O)NC(C)(C)C(=O)NCC(=O)O [Peptide 435] (H-H[Aib]QGTFTSDVSK[αMeF]LDTK([AEEA-AEEA-γGlu-C18 diacid])RARDFVQ[Aib]LLE[Aib]G-OH; N-terminus assumed)
7 | 0.0688 | 0.00743 | 18.3 | CC(C)C[C@H](NC(=O)[C@H](Cc1c[nH]c2ccccc12)NC(=O)[C@H](CCCNC(=N)N)NC(=O)[C@@H](NC(=O)[C@H](Cc1ccccc1)NC(=O)[C@H](CC(=O)O)NC(=O)[C@H](CCC(N)=O)NC(=O)[C@H](C)NC(=O)[C@H](CCCNC(=N)N)NC(=O)[C@H](CCCCNC(=O)COCCOCCNC(=O)COCCOCCNC(=O)CC[C@H](NC(=O)CCCCCCCCCCCCCCCCC(=O)O)C(=O)O)NC(=O)[C@H](CCCNC(=N)N)NC(=O)[C@H](CC(=O)O)NC(=O)[C@H](CC(C)C)NC(=O)[C@](C)(Cc1ccccc1)NC(=O)[C@H](CCCCN)NC(=O)[C@H](CO)NC(=O)[C@@H](NC(=O)[C@H](CC(=O)O)NC(=O)[C@H](CO)NC(=O)[C@@H](NC(=O)[C@H](Cc1ccccc1)NC(=O)[C@@H](NC(=O)CNC(=O)[C@H](CCC(N)=O)NC(=O)C(C)(C)NC(=O)[C@@H](N)Cc1c[nH]cn1)[C@@H](C)O)[C@@H](C)O)C(C)C)C(C)C)C(=O)N[C@H](C(=O)NC(C)(C)C(=O)N[C@@H](CCC(=O)O)C(N)=O)C(C)C [Peptide 436] (H-H[Aib]QGTFTSDVSK[αMeF]LDRK([AEEA-AEEA-γGlu-C18 diacid])RAQDFVRWLV[Aib]E-NH2; N-terminus assumed)
